Like-named read-outs stand apart in the source and are kept apart here.
Experiments:
C. albicans = assay: Antimycotic activity: Minimum Inhibitory Concentration; type: cell-based, Candida albicans ATCC 10231; settings: Candida albicans, pH 5.5, C. albicans, pH 5.5, 37° C., 72 hours, read-out: Minimum Inhibitory Concentrations
Method: (§1) The antimicrobial activity was determined by inoculation of the test microorganism into suitable growth media containing solutions of the compounds at concentrations of 100, 50, 10, 5, 1.0, 0.5 and 0.1 μg/ml. The reference antibiotics used were Gentamicin for the antibacterial tests and Amphotericin B for the antimycotic and antifungal tests. After incubation the antimicrobial activity was recorded as the Minimal Inhibitory Concentration (M.I.C.), i.e., the lowest concentration preventing macroscopically visible growth, for each test compound against each organism.
(§2) An initial solution of each formula (I) compound to be tested in sterile distilled water was prepared at a concentration of 1000 μg/ml. With appropriate dilutions using sterile distilled water, additional solutions were prepared at concentrations of 500, 100, 50, 10, 5 and 1 μg/ml.
The two species, C. albicans and C. tropicalis, were maintained on Sabouraud-Dextrose Agar (Oxoid CM41) and cultures for the preparation of the inoculum were incubated on this agar at 37° C. for 48 hours. 4.5 Ml volumes of citric acid-phosphate buffer pH 5.5 plus Yeast-Nitrogen Base (Difco 0392-15) were then inoculated from the agar cultures and incubated at 37° C. for 48 hours. 0.1 Ml aliquots of these cultures were then added to 100 ml volumes of sterile physiological saline to give the final inocula.
(§3) (b) For the tests on each of the C. albicans, C. tropicalis and C. neoformans strains and each of the test and reference compounds, a series of 8 tubes containing 4.5 ml volumes of citric acid-phosphate buffer pH 5.5 plus Yeast-Nitrogen Base (Difco 0392-15) were prepared. To 7 of these were added 0.5 ml volumes of the final solutions of the test compounds, giving final concentrations in the broths of 100, 50, 10, 5, 1.0, 0.5 and 0.1 μg/ml. To the eighth tube in each series was added 0.5 ml of the solvent used and diluted as for the preparation of the 1000 μg/ml solution of the compound. This tube was used as the growth control. The tubes were then inoculated with 0.1 ml aliquots of the inocula prepared as in "(b) Fungi" above. The tubes inoculated with the C. albicans and C. tropicalis were inoculated at 37° C. for 72 hours and the tubes inoculated with the C. neoformans straim were incubated at 30° C. for 72 hours. […] The tubes were then examined for evidence of growth as shown by turbidity of the medium and the lowest concentration of the test compound which prevented fungal growth was recorded as the Minimal Inhibitory Concentration. This test procedure was carried out on two separate days.

P. verrucosa = assay: Antifungal activity: Minimum Inhibitory Concentration; type: cell-based, Phialophore verrucosa NCPF 1119; settings: Phialophora verrucosa, P. verrucosa, 27° C., one week, read-out: Minimum Inhibitory Concentration
Method: as §1, §2
The A. corymbifera, A. fumigatus, S. schenkii, T. rubrum, T. mentagrophytes, M. canis and P. verrucosa strains were all maintained on Sabouraud-Dextrose Agar (Oxoid CM 41) by incubating for 14 days at 27° C. To prepare the inocula 30 ml volumes of Sabouraud-Liquid medium (Oxoid CM 147) were inoculated from the agar cultures and incubated at 27° C. until heavy uniform growth resulted. The mycelial growth was then broken up by shaking with glass beads.
1 Ml aliquots were removed from each of the cultures for the purpose of making viable counts and the cultures were then held at 4° C. The viable counts were made by preparing serial ten-fold dilutions of the cultures in sterile physiological saline and spreading on plates of Sabouraud-Dextrose Agar (Oxoid CM 41) which were then incubated at 27° C. for 14 days. When the viable counts had confirmed that each of the inocula contained approximately 10^6 colony forming units (C.F.U.) per ml the cultures were withdrawn from the refrigerator and used as the inocula for the tests.
(c) For the tests on each of the remaining seven strains and each of the test and reference compounds, a series of 8 tubes containing 4.5 ml volumes of Sabouraud-Liquid Medium (Oxoid CM 147) were prepared. To 7 of these were added 0.5 ml volumes of the final solutions of the test compounds, giving final concentrations in the broths of 100, 50, 10, 5, 1.0, 0.5 and 0.1 μg/ml. To the eighth tube in each series was added 0.5 ml of the solvent used and diluted as for the preparation of the 500 μg/ml solution of the compound. This tube was used as a growth control. The tubes were then inoculated with 0.1 ml aliquots of the inocula prepared as in "(b) Fungi" above. The tubes were then incubated at 27° C. with continuous shaking for a period of one week. The tubes were then examined for evidence of growth as shown by the presence of mycelial growth in the medium and the lowest concentration of the test compound which prevented fungal growth was recorded as the Minimal Inhibitory Concentration. This test procedure was carried out on two separate days.

C. neoformans = assay: Antimycotic activity: Minimum Inhibitory Concentration; type: cell-based, Cryptococcus neoformans NCPF 3184; settings: Cryptococcus neoformans, pH 5.5, C. neoformans, pH 5.5, 30° C., 72 hours, read-out: Minimum Inhibitory Concentrations
Method: as §1, §2
The C. neoformans was also maintained on Sabouraud-Dextrose Agar (Oxoid CM 41), but in this case cultures for the preparation of the inoculum were incubated on this agar at 30° C. for 48 hours. A 4.5 ml volume of citric acid-phosphate buffer pH 5.5 plus Yeast-Nitrogen Base (Difco-0392-15) was then inoculated from the agar culture and incubated at 30° C. for 48 hours. A 0.1 ml aliquot of this culture was then added to 100 ml sterile physiological saline to give the final inoculum.
as §3

E. coli = assay: Antibacterial activity: Minimum Inhibitory Concentration; type: cell-based, Escherichia coli ATCC 8739; settings: Escherichia coli, 24 hours
Method: as §1, §2
(§4) They were cultured and maintained on Tryptone Soy Agar (Oxoid CM 131), with the addition of 10% horse blood for the S. pyogenes.
(§5) To prepare the organisms as inocula for the test, slopes of this medium were streaked with the organisms and incubated at 37° C. for 24 hours. 4.5 Ml volumes of Brian-Heart Infusion Broth (Oxoid CM 225) were then inoculated with a platinum loop from the agar slope cultures and incubated for 24 hours at 37° C. The final inocula were then prepared by adding 0.1 ml aliquots of the Brain-Heart Infusion Broth cultures to 100 ml volumes of sterile physiological saline.
(§6) (a) For the test on each of the bacterial strains and each of the test and reference compounds, a series of 8 tubes containing 4.5 ml volumes of Brain-Heart Infusion Broth (Oxoid CM 225) were prepared. To 7 of these were added 0.5 ml volumes of the final solutions of the test compouns, giving final concentrations in the broths of 100, 50, 10, 5, 1.0, 0.5 and 0.1 μg/ml. To the eighth tube in each series was added 0.5 ml of the solvent used and diluted as for the preparation of the 1000 μg/ml solution of the compound. This tube was used as the growth control. The tubes were inoculated with 0.02 ml aliquots of the inocula prepared in accordance with "(a) Bacteria" above, and incubated at 37° C. for 24 hours. The tubes were then examined for evidence of bacterial growth as shown by turbidity of the medium and the lowest concentration of the test compound which prevented bacterial growth was recorded as the Minimal Inhibitory Concentration. This test procedure was carried out on two separate days.

S. aureus = assay: as above; type: cell-based, Staphylococcus aureus ATCC 6538; settings: Staphylococcus aureus, 24 hours
Method: as §1, §2, §4, §5, §6

SMILES	MIC (C. albicans; Day 1)	MIC (C. albicans; Day 2)	MIC (P. verrucosa; Day 1)	MIC (P. verrucosa; Day 2)	MIC (C. neoformans; Day 1)	MIC (C. neoformans; Day 2)	MIC (E. coli; Day 1, 37° C.)	MIC (E. coli; Day 2, 37° C.)	MIC (S. aureus; Day 1, 37° C.)	MIC (S. aureus; Day 2, 37° C.)
CCCCCCCCCCCCCCCCn1ccc[n+]1C [Example 3-D, 1-hexadecyl-2-methyl-pyrazolium methosulfate]	1 µg/mL	1 µg/mL	5 µg/mL	5 µg/mL	5 µg/mL	1 µg/mL	10 µg/mL	5 µg/mL	0.5 µg/mL	0.5 µg/mL
CCCCCCCCCCCCn1c(C)cc(C)[n+]1C [Example 1, 1-dodecyl-2,3,5-trimethyl-pyrazolium methosulfate]	10 µg/mL	50 µg/mL	5 µg/mL	5 µg/mL	0.5 µg/mL	0.5 µg/mL	50 µg/mL	100 µg/mL	5 µg/mL	5 µg/mL

Source: patent US4207326A, “Antimicrobial quaternary pyrazole derivatives” (Cilag-Chemie A.G., priority 1979, dated 1980)
